For four molecules, IC50 results are on record in patent US20090023753A1, “1,3-Thiazole-5-Carboxamides Useful as Cancer Chemotherapeutic Agents” (Bayer HealthCare AG, priority 2005, published 2009).

For assay [1], the system named is P-AKT/PKB in H209 small cell lung carcinoma cells. In words: P-AKT/PKB Cytoblot Assay with H209 cells (SCF-stimulated). Format: cell-based. The settings on record: Homo sapiens, NCI-H209, 1 hour compound incubation, SCF 25 ng/mL for 5 minutes, p-(S473) AKT. From the text: The utility of the compounds of the present invention can be illustrated, for example, by their activity in the P-AKT/PKB Cytoblot Assay described below. The involvement of the P-AKT/PKB[PI3K/AKt] pathway as a target for cancer chemotherapy has been recognized in the art. For example, see F. Chang et al, Involvement of PI3K/Akt pathway in cell cycle progression, apoptosis, and neoplastic transformation: a target for cancer chemotherapy, Leukemia, 2003, 17: p. 590-603; K. A. West et al, Activation of the PI3K/Akt pathway and chemotherapeutic resistance, Drug Resistance Updates, 2002, 5: p. 234-248; and P. Sen et al, Involvement of the Akt/PKB signaling pathway with disease processes, Molecular and Cellular Biochemistry, 2003, 253: p. 241-246.
P-AKT/PKB Cytoblot Assay Protocol with H209 Cells
H209 small cell lung carcinoma cells in log phase were plated at 50,000 cells/well in 96-well poly-lysine coated, clear bottom/black-sided plates (Becton-Dickinson, USA Cat # 354640) in 100 Ill RPMI medium containing 0.1% (w/v) BSA, and incubated overnight at 37° C. in 5% CO2 incubator. The following day, compounds (10 mM stock solutions in DMSO) were added to the plates to generate final concentrations of 0.0, 0.01, 0.03, 0.1, 0.3, 1.0, 3.0 and 10 μM for IC50 determinations and incubated for 1 hour at 37° C. Cells were then left untreated or stimulated with Stem Cell Factor (SCF: Biosource Cat # PHC2116) at a final concentration of 25 ng/mL for 5 minutes at 37° C. in 5% CO2 incubator. The media was then removed using a vacuum manifold and the cells were washed once with Tris Buffered Saline (TBS). Cells were then fixed by adding 200 μl of cold 3.7% (v/v) formaldehyde in TBS to each well for 15 minutes at 4° C. After removal of the formaldehyde, the cells were treated with the addition of 50 μl of methanol (at −20° C.) to each well for 5 minutes. After removal of the methanol, 200 μl of 1% (w/v) BSA in TBS was added to each well to block non-specific antibody binding sites and the plate was incubated at room temperature for 30 minutes.
After removal of the blocking buffer, 50 μl of p-(S473) AKT rabbit polyclonal antibody (Cell Signaling, USA Cat # 9277S) was added at a dilution of 1:250 in 0.1% (w/v) BSA in TBS, and the plate was incubated at room temperature for 1 hour. Plates were then washed 3 times with cold TBS containing 0.05% (v/v) Tween 20 (TBS-T) and 100 μl of Horseradish peroxidase (HRP)-conjugated goat-anti-rabbit antibody (Amersham, USA Cat # NA934V) at a dilution of 1:250 in TBS-T was added and the plate was incubated at room temperature for 1 h. After washing with ice-cold TBS-T four times, 100 μl of Enhanced Chemiluminescence (ECL) reagent (Amersham, USA Cat# RPN2209) was added to each well and mixed on a mini-orbital shaker for 1 min. The plate was then read on a Perkin Elmer Victor 5 Multilabel Counter (#1420-0421).

The target in assay [2] is T1, Flk-1 (murine VEGFR-2) kinase domain (Mus musculus, UniProt P35918).
T1 construct: 7 nM Flk-1 (kinase domain)
In words: Flk-1 (murine VEGFR-2) Biochemical Assay (TR-FRET). As to conditions: 10 μM ATP, 7 nM Flk-1 (kinase domain). (In general: TR-FRET usually uses a lanthanide donor and a delayed reading to cut background.)

In assay [3] the test system is phospho-ERK in MDA-MB-231 cells. In words: Phospho-ERK Cytoblot Assay with MDA-MB 231 cells. The assay is classed as cell-based. The settings on record: Homo sapiens, 1 hour compound incubation, phospho-p44/42 MAP kinase (Thr202/Tyr204). The source says: The utility of the compounds of the present invention can also be illustrated, for example, by their activity in the phosph-ERK Assay described below. Growth-factor induction of the RAS/MEK/ERK signaling pathway leads to the induction of phosphorylation of a number of proteins including phospho-ERK (See C. J. Marshall, MAP kinase kinase kinase, MAP kinase kinase and MAP kinase, Current Opinions in Genetic Development, 1994, 4: p. 82-89). The importance of this pathway in cancer biology has been recognized in the art. Activation of the RAS signaling pathway is an important mechanism by which cancer develops (R. Herrera, et al, Unraveling the complexities of the Raf/MAP kinase pathway for pharmacological intervention, Trends Mol. Med., 2002, 8: p. S27-31). Mutational activation of RAS or downstream effectors as well as growth factor induction of this pathway leads to increased tumor cell proliferation and survival (A. A. Adjei, Blocking oncogenic RAS signaling for cancer therapy, J. Natl. Cancer Inst., 2001, 93(14): p. 1062-1074; J Schlessinger, Cell signaling by receptor tyrosine kinases, Cell, 2000, 103: p. 211-225). Phospho-ERK Cytoblot Assay Protocol with MDA-MB 231 Cells MDA-MB-231 cells in log phase were plated at 25,000 cells/well in 96-well opaque plates (Falcon, USA Cat # 353296) in 100 μL RPMI medium containing 10% (w/v) FBS, and incubated overnight at 37° C. in 5% CO2 incubator. The following day, the growth medium was removed from the plate by aspiration and replaced with RPMI medium containing 0.1% BSA and example compounds diluted to generate final concentrations of 0.0, 0.001, 0.003, 0.01, 0.03, 0.1, 0.3, 1 and 3 μM. Cells were incubated with compound for 1 hour at 37° C. in a 5% CO2 incubator. The media was then removed from the plate by aspiration and the cells were washed once with 180 μL/well cold Tris Buffered Saline (TBS). After removal of the wash buffer, the cells were fixed by adding 180 μL of cold 3.7% (v/v) formaldehyde in TBS to each well for 1 hour at 4° C. After removal of the formaldehyde, the cells were treated with the addition of 60 μL of −20° C. methanol to each well for 5 minutes at 4° C. The methanol was removed and the cells were washed with 180 μL/well of 5% (w/v) BSA in TBS. To block non-specific antibody binding sites, each well was treated with 180 μL/well 5% BSA (w/v) in TBS for thirty minutes at room temperature. After removal of the blocking buffer, 50 μL of an anti-phospho-p44/42 MAP kinase (Thr202/Tyr204) rabbit polyclonal antibody (Cell Signaling, USA Cat # 9101) was added to each well at a dilution of 1:1000 in 5% (w/v) BSA in TBS, and the plate was incubated at 4° C. overnight. Plates were then washed three times with 300 μL/well TBS at room temperature. The plates were then incubated with 50 μL of Horseradish peroxidase (HRP)-conjugated goat-anti-rabbit antibody (Amersham, USA Cat. # NA934V) at a dilution of 1:1000 in 5% BSA-TBS at room temperature for 1 hr. After washing the plate three times with 300 μL/well TBS, 60 μL of Enhanced Chemiluminescence (ECL) reagent (Amersham, USA Cat# RPN2209) was added to each well and incubated at room temperature for five minutes. The plate was then read on a Perkin Elmer Victor 5 Multilabel Counter (#1420-0421). […] The utility of the compounds of the present invention can also be illustrated, for example, by their activity in the flk-1 (murine VEGFR2) Assay described below. The VEGF-VEGFR2 signaling pathway has been extensively characterized as an important regulator of angiogenesis and tumor angiogeneisis (See G. Yancopoulos et al, Vascular-specific growth factors and blood vessel formation, Nature, 2000, 407: p. 242-248; D. Shweiki et al, Induction of vascular endothelial growth factor expression by hypoxia and by glucose deficiency in multi cell spheroids: Implications for tumor angiogenesis, Proc. Natl. Acad. Sci, 1995, 92: p. 768-772). Inhibition of tumor cell growth by blocking this pathway has been well documented in the art. […]

T1 sequence (P35918 832-1160 limits assumed): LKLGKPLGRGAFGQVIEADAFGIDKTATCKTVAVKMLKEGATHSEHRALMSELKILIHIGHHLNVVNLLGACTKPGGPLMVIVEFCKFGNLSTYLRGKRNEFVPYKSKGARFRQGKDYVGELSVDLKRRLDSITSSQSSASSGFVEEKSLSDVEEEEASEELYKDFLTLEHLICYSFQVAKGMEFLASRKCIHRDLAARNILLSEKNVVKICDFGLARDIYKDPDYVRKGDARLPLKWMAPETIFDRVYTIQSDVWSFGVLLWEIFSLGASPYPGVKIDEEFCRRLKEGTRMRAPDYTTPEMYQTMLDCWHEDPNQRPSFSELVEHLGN

As a reminder, the IC50 is the midpoint of a concentration-inhibition curve. Low values mean greater potency in that assay, high ones weaker potency in that assay. Regarding `COCCOCC(=O)Nc1cc(CNc2ncsc2C(=O)Nc2ccc3c(c2)OC(F)(F)C(F)(F)O3)ccn1` [Example 9, 4-{[(2-{[(2-methoxyethoxy)acetyl]amino}pyridin-4-yl)methyl]amino}-N-(2,2,3,3-tetrafluoro-2,3-dihydro-1,4-benzodioxin-6-yl)-1,3-thiazole-5-carboxamide], the figures for the IC50 in assay [1], in assay [2] and in assay [3] were below 500 nM, below 500 nM and below 3000 nM, respectively.
Consider `CNC(=O)Nc1cc(CNc2ncsc2C(=O)Nc2ccc3c(c2)OC(F)(F)C(F)(F)O3)ccn1` [Example 20, 4-{[(2-{[(methylamino)carbonyl]amino}pyridin-4-yl)methyl]amino}-N-(2,2,3,3-tetrafluoro-2,3-dihydro-1,4-benzodioxin-6-yl)-1,3-thiazole-5-carboxamide], for which the IC50 was below 500 nM in assay [1], below 500 nM in assay [2] and below 3000 nM in assay [3].
For `CC(=O)OCC(=O)Nc1cc(CNc2ncsc2C(=O)Nc2ccc3c(c2)OC(F)(F)C(F)(F)O3)ccn1` [Example 14, 2-oxo-2-[(4-{[(5-{[(2,2,3,3-tetrafluoro-2,3-dihydro-1,4-benzodioxin-6-yl)amino]carbonyl}-1,3-thiazol-4-yl)amino]methyl}pyridin-2-yl)amino]ethyl acetate], the IC50 in assay [1] is below 500 nM; in assay [2] it was below 500 nM; in assay [3], below 3000 nM.
On to `CCNC(=O)Nc1cc(CNc2ncsc2C(=O)Nc2ccc3c(c2)OC(F)(F)C(F)(F)O3)ccn1` [Example 21, 4-{[(2-{[(ethylamino)carbonyl]amino}pyridin-4-yl)methyl]amino}-N-(2,2,3,3-tetrafluoro-2,3-dihydro-1,4-benzodioxin-6-yl)-1,3-thiazole-5-carboxamide], for which the IC50 was below 500 nM in assay [1], below 500 nM in assay [2] and below 3000 nM in assay [3].
